Experimental data: patent US20250144067A1, “PERSONALIZED STARVATION THERAPY FOR CANCER” (Faeth Therapeutics, Inc., priority 2021, published 2025)
Structures can show the parent of a compound that is named as a salt. Where two headings read alike, the source gives them in different places. Peptide text beside a SMILES is read from it.

Key:
[1] = test system: NCI-H292 lung cancer cells; assay: FDA drug screening, complete media vs cholesterol-free media without statin (TABLE 1); assay type: cell-based, human
[2] = test system: NCI-H292 lung cancer cells; assay: FDA drug screening, complete media vs cholesterol-free media with simvastatin (TABLE 2); assay type: cell-based, human
[3] = Complete minus Cholesterol-free, greater than 0 enhanced anti-cancer activity, about 0 neutral, below 0 antagonists
[4] = NCI-H292 cells in cholesterol-free media without statin
[5] = NCI-H292 cells in complete media
[6] = NCI-H292 cells, FDA library drug in cholesterol-free media with simvastatin 0.04 μM
[7] = NCI-H292 cells, FDA library drug in complete media
[8] = complete media vs cholesterol-free media + simvastatin (0.04 μM), >0 enhanced anti-cancer activity, about 0 neutral, <0 antagonist
[9] = Complete minus Cholesterol-free, greater than 0 enhanced anti-cancer activity, about 0 neutral, below 0 antagonist
[10] = NCI-H292 cells, FDA drug library screen, cholesterol-free media without statin
[11] = NCI-H292 cells, FDA drug library screen, complete media
[12] = NCI-H292 cells, FDA drug library screen, cholesterol-free media with simvastatin 0.04 μM
[13] = Complete minus Cholesterol-free, >0 enhanced anti-cancer activity, about 0 neutral, <0 antagonist
[14] = NCI-H292 cells, cholesterol-free media without statin, FDA drug library screen
[15] = NCI-H292 cells, complete media, FDA drug library screen
[16] = NCI-H292 cells, drug in cholesterol-free media with simvastatin 0.04 μM
[17] = NCI-H292 cells, drug in complete media
[18] = NCI-H292 cells, cholesterol-free media without statin
[19] = complete vs cholesterol-free media, greater than 0 enhanced anti-cancer activity, about 0 neutral, below 0 antagonists
[20] = NCI-H292 cells, cholesterol-free media with simvastatin 0.04 μM, FDA drug library screen (TABLE 2)
[21] = NCI-H292 cells, complete media, FDA drug library screen (TABLE 2)
[22] = complete media minus cholesterol-free media + simvastatin (0.04 μM), >0 enhanced anti-cancer activity, about 0 neutral, <0 antagonist
[23] = NCI-H292 cells, cholesterol-free media with simvastatin 0.04 μM, cell growth value in FDA drug screen
[24] = NCI-H292 cells, complete media, cell growth value in FDA drug screen
[25] = complete media minus cholesterol-free media + simvastatin, >0 enhanced anti-cancer activity, about 0 neutral, <0 antagonist
[26] = complete vs cholesterol-free media, >0 enhanced anti-cancer activity, about 0 neutral, <0 antagonist

CCN(CC)CC(=O)Nc1c(C)cccc1C [Lidocaine]
Difference [1, 3]: −0.78 | Cholesterol-free [1, 4]: 1.775 | Complete [1, 5]: 0.9935 | Cholesterol-free media + simvastatin (0.04 μM) [2, 6]: 1.433 | Complete Media [2, 7]: 1.088 | Difference [2, 8]: −0.34

CS(=O)(=O)c1cccc(C[C@H](NC(=O)c2c(Cl)cc3c(c2Cl)CCN(C(=O)c2ccc4ccoc4c2)C3)C(=O)O)c1 [Lifitegrast]
Difference [1, 9]: −0.15 | Cholesterol-free [1, 10]: 1.11 | Complete [1, 11]: 0.9552 | Cholesterol-free media + simvastatin (0.04 μM) [2, 12]: 1.009 | Complete Media [2, 11]: 0.8652 | Difference [2, 8]: −0.14

Cc1nc(C)c(C)nc1C [Ligustrazine (hydrochloride)]
Difference [1, 13]: −0.06 | Cholesterol-free [1, 14]: 1.047 | Complete [1, 15]: 0.9829 | Cholesterol-free media + simvastatin (0.04 μM) [2, 16]: 1.229 | Complete Media [2, 17]: 1.02 | Difference [2, 8]: −0.21

CCCC[C@H](C)C[C@H](O)/C=C/[C@H]1[C@H](O)CC(=O)[C@@H]1CCCC/C=C/C(=O)O [Limaprost]
Cholesterol-free [1, 18]: 1.4 | Complete ([1]; NCI-H292 cells, complete media): 0.949 | Difference [1, 19]: −0.45 | Cholesterol-free media + simvastatin (0.04 μM) [2, 16]: 1.214 | Complete Media [2, 17]: 0.9724 | Difference [2, 8]: −0.24

C[C@@H]1NC(=O)[C@@H]2CCCN2C(=O)[C@H](CC(N)=O)NC(=O)[C@@H]2CSSC[C@H](N)C(=O)N[C@H]3CSSC[C@H](NC1=O)C(=O)N[C@@H]([C@@H](C)O)C(=O)NCC(=O)N[C@H](C(=O)N[C@@H](Cc1ccc(O)cc1)C(=O)O)CSSC[C@H](NC(=O)[C@H](Cc1ccc(O)cc1)NC(=O)[C@H](CCC(=O)O)NC3=O)C(=O)N2 [Linaclotide] (HELM PEPTIDE1{C.C.E.Y.C.C.N.P.A.C.T.G.C.Y}$PEPTIDE1,PEPTIDE1,1:R3-6:R3|PEPTIDE1,PEPTIDE1,2:R3-10:R3|PEPTIDE1,PEPTIDE1,5:R3-13:R3$$$V2.0)
Cholesterol-free [1, 14]: 1.326 | Complete [1, 15]: 1.765 | Difference ([1]; complete vs cholesterol-free media, […]): 0.44 | Cholesterol-free media + simvastatin (0.04 μM) [2, 12]: 0.9562 | Complete Media [2, 11]: 0.8554 | Difference ([2]; complete media vs cholesterol-free media + simvastatin (0.04 μM), […]): −0.10

CC#CCn1c(N2CCC[C@@H](N)C2)nc2c1c(=O)n(Cc1nc(C)c3ccccc3n1)c(=O)n2C [Linagliptin]
Difference [1, 13]: −0.23 | Cholesterol-free [1, 18]: 1.072 | Complete ([1]; NCI-H292 cells, complete media): 0.8404 | Cholesterol-free media + simvastatin (0.04 μM) [2, 20]: 1.095 | Complete Media [2, 21]: 1.067 | Difference [2, 22]: −0.03

CCC[C@@H]1C[C@@H](C(=O)N[C@@H]([C@H]2O[C@H](SC)[C@H](O)[C@@H](O)[C@H]2O)[C@@H](C)O)N(C)C1 [Lincomycin (hydrochloride monohydrate)]
Cholesterol-free [1, 18]: 1.114 | Complete ([1]; NCI-H292 cells, complete media): 0.7781 | Difference [1, 19]: −0.34 | Cholesterol-free media + simvastatin (0.04 μM) [2, 23]: 0.819 | Complete Media [2, 24]: 0.8378 | Difference [2, 25]: 0.02

CC(=O)NC[C@H]1CN(c2ccc(N3CCOCC3)c(F)c2)C(=O)O1 [Linezolid]
Difference [1, 13]: 0.04 | Cholesterol-free [1, 14]: 0.9483 | Complete [1, 15]: 0.9881 | Cholesterol-free media + simvastatin (0.04 μM) [2, 16]: 1.38 | Complete Media [2, 17]: 1.187 | Difference [2, 8]: −0.19

CCCCC/C=C\C/C=C\CCCCCCCC(=O)O [Linoleic acid]
Cholesterol-free [1, 14]: 1.134 | Complete [1, 15]: 1.557 | Difference [1, 26]: 0.42 | Cholesterol-free media + simvastatin (0.04 μM) [2, 12]: 1.399 | Complete Media [2, 11]: 1.847 | Difference [2, 25]: 0.45

N[C@@H](Cc1cc(I)c(Oc2ccc(O)c(I)c2)c(I)c1)C(=O)O [Liothyronine (sodium)]
Cholesterol-free [1, 18]: 1.224 | Complete ([1]; NCI-H292 cells, complete media): 0.9078 | Difference [1, 19]: −0.32 | Cholesterol-free media + simvastatin (0.04 μM) [2, 16]: 1.302 | Complete Media [2, 17]: 1.113 | Difference [2, 8]: −0.19

N[C@@H](Cc1cc(I)c(Oc2ccc(O)c(I)c2)c(I)c1)C(=O)O [Liothyronine]
Difference [1, 13]: −0.26 | Cholesterol-free [1, 18]: 1.173 | Complete ([1]; NCI-H292 cells, complete media): 0.9078 | Cholesterol-free media + simvastatin (0.04 μM) [2, 12]: 1.186 | Complete Media [2, 11]: 1.048 | Difference [2, 8]: −0.14

O=C(O)CCCCC1CCSS1 (centres unmarked) [Lipoic acid]
Difference [1, 9]: −0.11 | Cholesterol-free [1, 10]: 0.8613 | Complete [1, 11]: 0.7528 | Cholesterol-free media + simvastatin (0.04 μM) [2, 12]: 0.7443 | Complete Media [2, 11]: 1.012 | Difference [2, 25]: 0.27

COc1cccc(N(C)C(=S)Oc2ccc3c(c2)CCCC3)n1 [Liranaftate]
Cholesterol-free [1]: 1.279 | Complete [1]: 0.8388 | Difference [1]: −0.44 | Cholesterol-free media + simvastatin (0.04 μM) [2]: 0.9604 | Complete Media [2]: 0.9217 | Difference [2]: −0.04

NCCCC[C@H](N[C@@H](CCc1ccccc1)C(=O)O)C(=O)N1CCC[C@H]1C(=O)O [Lisinopril (dihydrate)]
Difference [1, 9]: −0.08 | Cholesterol-free [1, 10]: 1.734 | Complete [1, 11]: 1.657 | Cholesterol-free media + simvastatin (0.04 μM) [2, 20]: 0.94 | Complete Media [2, 21]: 0.9409 | Difference [2, 22]: 0.00

CN1[C@@H](CC(=O)c2ccccc2)CCC[C@H]1C[C@H](O)c1ccccc1 [Lobeline (hydrochloride)]
Cholesterol-free [1, 14]: 0.6538 | Complete [1, 15]: 1.202 | Difference [1, 26]: 0.55 | Cholesterol-free media + simvastatin (0.04 μM) [2, 6]: 1.408 | Complete Media [2, 7]: 1.116 | Difference [2, 8]: −0.29

CCCc1nn(C)c2c(=O)[nH]c(-c3cc(S(=O)(=O)N4CCN(CCO)CC4)ccc3OCC)nc12 [Lodenafil]
Difference [1, 13]: −0.27 | Cholesterol-free [1, 18]: 0.8421 | Complete ([1]; NCI-H292 cells, complete media): 0.5699 | Cholesterol-free media + simvastatin (0.04 μM) [2, 23]: 0.819 | Complete Media [2, 24]: 0.8488 | Difference [2, 25]: 0.03

N#Cc1cc(NC(=O)C(=O)O)c(Cl)c(NC(=O)C(=O)O)c1.NC(CO)(CO)CO.NC(CO)(CO)CO [Lodoxamide (tromethamine)]
Difference [1, 9]: −0.13 | Cholesterol-free [1, 10]: 0.8848 | Complete [1, 11]: 0.7586 | Cholesterol-free media + simvastatin (0.04 μM) [2, 12]: 0.9835 | Complete Media [2, 11]: 1.282 | Difference [2, 25]: 0.30

N#Cc1cc(NC(=O)C(=O)O)c(Cl)c(NC(=O)C(=O)O)c1 [Lodoxamide]
Difference [1, 13]: −0.26 | Cholesterol-free [1, 18]: 1.144 | Complete ([1]; NCI-H292 cells, complete media): 0.8858 | Cholesterol-free media + simvastatin (0.04 μM) [2, 16]: 1.021 | Complete Media [2, 17]: 0.7589 | Difference [2, 8]: −0.26

CC(Oc1c(Cl)cccc1Cl)C1=NCCN1 (centres unmarked) [Lofexidine (hydrochloride)]
Difference [1, 3]: −0.50 | Cholesterol-free [1, 4]: 1.453 | Complete [1, 5]: 0.95 | Cholesterol-free media + simvastatin (0.04 μM) [2, 23]: 1.271 | Complete Media [2, 24]: 1.376 | Difference [2, 25]: 0.10

CC(Oc1c(Cl)cccc1Cl)C1=NCCN1 (centres unmarked) [Lofexidine]
Difference [1, 9]: −0.14 | Cholesterol-free [1, 10]: 0.8805 | Complete [1, 11]: 0.7367 | Cholesterol-free media + simvastatin (0.04 μM) [2, 6]: 1.108 | Complete Media [2, 7]: 0.8401 | Difference [2, 8]: −0.27

CCn1cc(C(=O)O)c(=O)c2cc(F)c(N3CCNC(C)C3)c(F)c21 (centres unmarked) [Lomefloxacin (hydrochloride)]
Cholesterol-free [1, 18]: 1.531 | Difference [1, 19]: −0.37 | Cholesterol-free media + simvastatin (0.04 μM) [2, 6]: 1.657 | Complete Media [2, 7]: 0.934 | Difference [2, 8]: −0.72

COc1ccc(CN2CCN(C(c3ccc(F)cc3)c3ccc(F)cc3)CC2)c(OC)c1OC [Lomerizine dihydrochloride]
Difference [1, 9]: −0.12 | Cholesterol-free [1, 10]: 1.023 | Complete [1, 11]: 0.8999 | Cholesterol-free media + simvastatin (0.04 μM) [2, 6]: 1.178 | Complete Media [2, 7]: 0.8678 | Difference [2, 8]: −0.31

O=C(NC1CCN(CCCCC2(C(=O)NCC(F)(F)F)c3ccccc3-c3ccccc32)CC1)c1ccccc1-c1ccc(C(F)(F)F)cc1 [Lomitapide]
Difference [1, 13]: −0.25 | Cholesterol-free [1, 18]: 0.9551 | Complete ([1]; NCI-H292 cells, complete media): 0.7097 | Cholesterol-free media + simvastatin (0.04 μM) [2, 16]: 1.325 | Complete Media [2, 17]: 1.07 | Difference [2, 8]: −0.25

O=NN(CCCl)C(=O)NC1CCCCC1 [Lomustine]
Difference ([1]; Complete minus Cholesterol-free, […]): −0.14 | Cholesterol-free [1, 10]: 1.107 | Complete [1, 11]: 0.965 | Cholesterol-free media + simvastatin (0.04 μM) [2, 20]: 0.7579 | Complete Media [2, 21]: 0.7602 | Difference ([2]; complete media minus cholesterol-free media + simvastatin (0.04 μM), […]): 0.00

CN(C)C(=O)C(CCN1CCC(O)(c2ccc(Cl)cc2)CC1)(c1ccccc1)c1ccccc1 [Loperamide (hydrochloride)]
Cholesterol-free [1]: 1.105 | Complete [1]: 0.9631 | Difference [1]: −0.14 | Cholesterol-free media + simvastatin (0.04 μM) [2]: 1.197 | Complete Media [2]: 0.9577 | Difference [2]: −0.24

Cc1cccc(C)c1OCC(=O)N[C@@H](Cc1ccccc1)[C@@H](O)C[C@H](Cc1ccccc1)NC(=O)[C@H](C(C)C)N1CCCNC1=O [Lopinavir]
Cholesterol-free [1, 18]: 1.281 | Complete ([1]; NCI-H292 cells, complete media): 0.8723 | Difference [1, 19]: −0.41 | Cholesterol-free media + simvastatin (0.04 μM) [2, 12]: 1.549 | Complete Media [2, 11]: 1.393 | Difference [2, 8]: −0.16
